Assay results: paper PMC12123601, “Light-Induced, Lysine-Targeting Irreversible Covalent Inhibition of the Human Oxygen Sensing Hydroxylase Factor Inhibiting HIF (FIH)” (Journal of the American Chemical Society, 2025)

Tests used:
FIH = FIH (Homo sapiens, UniProt Q9NWT6); test: O-phenylenediamine (OPD) 2OG derivatization turnover assay (remaining 2OG in FIH hydroxylation system); assay type: biochemical; design: Concentration of remaining 2OG: unit: µM
Procedure: To explore whether the covalent inhibitor can effectively and sustainably prevent the hydroxylation process catalyzed by FIH, the inhibitory activities against FIH were evaluated using the fluorescent O-phenylenediamine (OPD) 2OG derivatization turnover assay (Figure S9).
Figure S9. Schematic of the O-phenylenediamine (OPD) fluorescent derivative assay6. The assay monitors depletion of 2OG.
(1 picture or pasted object on this page, not shown here) […]
pET28a vectors encoding for full-length FIH with an N-terminal His6 tag or for FIH (K106A) with an N-terminal His6 tag were purchased from Nanjing Zoonbio Biotechnology. Both the FIHWT and FIHK106A protein were expressed from the respective plasmid in Escherichia coli BL21 at 20 °C for 16 h. E. coli cells were lysed and the lysate were clarified by centrifugation. His6-tagged FIHWT or FIHK106A was purified on a HisTrap affinity column (GE Healthcare) by elution with an imidazole gradient. The final purified proteins were stored in PBS buffer. […]
Ki = I50 / [1 + ([L]50 + [P]0)/Kd] […]
3.2 O-Phenylenediamine (OPD) fluorescent derivative assay
Assays were carried out by mixing 1 mM DTT, 0.6 mg/mL of catalase, 200 μM 2-OG, 50 mM Hepes, 200 μM HIF-1α (788-807), and inhibitors at pH 7.0 to a final volume of 44 μL and incubated at 37 °C for 5 min. At the same time, FIH enzyme and iron (prepared as 200 mM stock in 20 mM HCl and diluted with water) were mixed at room temperature for 3 min. […] The reaction was stopped by the addition of 100 μL of 0.5 M HCl. After adding 50 μL of 10 mg/mL OPD in 0.5 M HCl and heating at 95 °C for 10 min, the derivatization was achieved. Then, 50 μL of the mixture centrifugated for 5 min was made basic by adding 30 μL of 1.25 M NaOH, and then fluorescence was detected by SPARK Multi-Mode Microplate Reader (Tecan). […]
Crystals were cryo -protected using mother liquor supplemented with 25%v/v glycerol before manual loop cryo -cooling in liquid N2.
Data for ligand -bound protein complexes were from single crystals at 100 K using Diamond Light Source (UK) beamlines. The FIH crystal structures were determined by molecular replacement (MR) using the AutoMR (PHASER) subroutine in PHENIX (version 1.18.2) based on the PDB ID: 1H2K crystal structure .

[1] = system: EGLN3 expression in FIH knockdown Hep3B cells; test: qRT-PCR of EGLN3 in FIH knockdown (siFIH) Hep3B cells; assay type: cell-based
Procedure: 5 NBA-ZG-2991 sustainably engages with FIH and regulates the expression of FIH-dependent HIF target gene EGLN3 in Hep3B cells. (A) The CETSA assay was carried out with Hep3B cells grown in the presence of NBA-ZG-2291 (50 μM) for 12–48 h after 30 min of light activation (365 nm, 16 W). The intensity of the bands for grayscale analysis was referenced to the starting temperature (37 °C). α-Actinin was the sample loading control. n = 2; mean ± SD. […] (E) Correlation heatmap of the NBA-ZG-2291-treated group and the siFIH group by RNA-sequencing analysis. […] The relative fold change with respect to DMSO treated sample is shown (with normalization to HPRT gene levels). Mean ± SEM; n = 3. (G) TG level of NBA-ZG-2291-treated 3T3-L1-derived adipocytes. Mean ± SEM; n = 3. (H) Representative Oil Red O-stained images of the control, ZG-2291-treated, and NBA-ZG-2291-treated 3T3-L1-derived adipocytes. Scale Bar, 30 μm. P values were analyzed by two-way ANOVA comparing with the vehicle/control group (*, P < 0.05; **, P < 0.01; ***, P < 0.001, ****, P < 0.0001). See Methods (Quantitative PCR Analysis of Gene Expression) for assay details. […]

Sequence of FIH (Q9NWT6 whole entry): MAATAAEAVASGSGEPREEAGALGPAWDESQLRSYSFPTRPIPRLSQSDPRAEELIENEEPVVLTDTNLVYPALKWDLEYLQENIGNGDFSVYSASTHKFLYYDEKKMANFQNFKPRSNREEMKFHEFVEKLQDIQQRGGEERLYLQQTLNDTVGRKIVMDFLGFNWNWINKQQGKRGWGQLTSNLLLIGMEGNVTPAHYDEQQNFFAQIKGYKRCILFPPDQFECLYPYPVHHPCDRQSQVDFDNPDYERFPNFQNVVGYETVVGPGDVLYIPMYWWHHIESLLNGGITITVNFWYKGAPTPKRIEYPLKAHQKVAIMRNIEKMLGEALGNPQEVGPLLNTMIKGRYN

- Concentration of remaining 2OG (FIH; inhibitor 0.14 μM, incubation 0 min, 200 μM 2-OG at start): 200.0
- Concentration of remaining 2OG (FIH; inhibitor 0.14 μM, incubation 15 min): 187.5
- Concentration of remaining 2OG (FIH; inhibitor 0.14 μM, incubation 30 min): 184.6
- Concentration of remaining 2OG (FIH; inhibitor 0.14 μM, incubation 1 h): 174.8
- Concentration of remaining 2OG (FIH; inhibitor 0.14 μM, incubation 4 h): 163.1
- Concentration of remaining 2OG (FIH; inhibitor 0.41 μM, incubation 0 min, 200 μM 2-OG at start): 200.0
- Concentration of remaining 2OG (FIH; inhibitor 0.41 μM, incubation 15 min): 189.1
- Concentration of remaining 2OG (FIH; inhibitor 0.41 μM, incubation 30 min): 188.8
- Concentration of remaining 2OG (FIH; inhibitor 0.41 μM, incubation 1 h): 184.6
- Concentration of remaining 2OG (FIH; inhibitor 0.41 μM, incubation 4 h): 171.6
- Concentration of remaining 2OG (FIH; inhibitor 1.23 μM, incubation 0 min, 200 μM 2-OG at start): 200.0
- Concentration of remaining 2OG (FIH; inhibitor 1.23 μM, incubation 15 min): 191.6
- Concentration of remaining 2OG (FIH; inhibitor 1.23 μM, incubation 30 min): 190.6
- Concentration of remaining 2OG (FIH; inhibitor 1.23 μM, incubation 1 h): 187.9
- Concentration of remaining 2OG (FIH; inhibitor 1.23 μM, incubation 4 h): 182.8
- Concentration of remaining 2OG (FIH; inhibitor 3.70 μM, incubation 0 min, 200 μM 2-OG at start): 200.0
- Concentration of remaining 2OG (FIH; inhibitor 3.70 μM, incubation 15 min): 194.0
- Concentration of remaining 2OG (FIH; inhibitor 3.70 μM, incubation 30 min): 193.5
- Concentration of remaining 2OG (FIH; inhibitor 3.70 μM, incubation 1 h): 189.6
- Concentration of remaining 2OG (FIH; inhibitor 3.70 μM, incubation 4 h): 185.3
- Concentration of remaining 2OG (FIH; inhibitor 11.1 μM, incubation 0 min, 200 μM 2-OG at start): 200.0
- Concentration of remaining 2OG (FIH; inhibitor 11.1 μM, incubation 15 min): 199.7
- Concentration of remaining 2OG (FIH; inhibitor 11.1 μM, incubation 30 min): 198.7
- Concentration of remaining 2OG (FIH; inhibitor 11.1 μM, incubation 1 h): 197.8
- Concentration of remaining 2OG (FIH; inhibitor 11.1 μM, incubation 4 h): 197.2
- Concentration of remaining 2OG (FIH; inhibitor 33.3 μM, incubation 0 min, 200 μM 2-OG at start): 200.0
- Concentration of remaining 2OG (FIH; inhibitor 33.3 μM, incubation 15 min): 200.8
- Concentration of remaining 2OG (FIH; inhibitor 33.3 μM, incubation 30 min): 198.7
- Concentration of remaining 2OG (FIH; inhibitor 33.3 μM, incubation 1 h): 197.6
- Concentration of remaining 2OG (FIH; inhibitor 33.3 μM, incubation 4 h): 197.3
- Concentration of remaining 2OG (FIH; inhibitor 100 μM, incubation 0 min, 200 μM 2-OG at start): 200.0
- Concentration of remaining 2OG (FIH; inhibitor 100 μM, incubation 15 min): 200.1
- Concentration of remaining 2OG (FIH; inhibitor 100 μM, incubation 30 min): 199.2
- Concentration of remaining 2OG (FIH; inhibitor 100 μM, incubation 1 h): 198.5
- Concentration of remaining 2OG (FIH; inhibitor 100 μM, incubation 4 h): 198.3
- Concentration of remaining 2OG (FIH; inhibitor 300 μM, incubation 0 min, 200 μM 2-OG at start): 200.0
- Concentration of remaining 2OG (FIH; inhibitor 300 μM, incubation 15 min): 201.4
- Concentration of remaining 2OG (FIH; inhibitor 300 μM, incubation 30 min): 199.5
- Concentration of remaining 2OG (FIH; inhibitor 300 μM, incubation 1 h): 199.2
- Concentration of remaining 2OG (FIH; inhibitor 300 μM, incubation 4 h): 198.6
SMILES: O=C(O)CNC(=O)c1ncc(-c2cc(-c3ccc(CO)c([N+](=O)[O-])c3)no2)cc1O [NBA-ZG-2291]
- Inhibition of FIH hydroxylation activity on the HIF peptide (2OG consumption) (FIH; compared to ZG-2291): more potent and sustained inhibition of FIH hydroxylation activity
- Effect on EGLN3 expression when FIH was knocked down [1]: no significant effect on EGLN3 expression
